“Also recorded” adds a separate entry of the source.
Tests used:
[1] = tested on: outward potassium current; assay: Whole-cell patch clamp recording of potassium current in stem cell-derived retinal ganglion cells; format: cell-based, human; conditions: Protocol A, 4-AP 1 mM
[2] = tested on: human embryonic stem cell-derived retinal ganglion cells; assay: Differentiation by other Wnt signaling pathway and Shh receptor activators, immunofluorescence of Islet-1 and NF200; format: cell-based; conditions: day 39, Protocol A schedule; BIO 2 μM, Norrin 50 ng/mL, purmorphamine 1 μM, RA 500 nM
Protocol: On day 14 after induction of differentiation, retinal progenitor cells generated in Example 3 were cultured and differentiated into immature retinal ganglion cells for 3 days in a differentiation medium [DMEM/F12 (Invitrogen), 1 mM L-glutamine (Invitrogen), 0.1 mM nonessential amino acids (Invitrogen), 0.1 mM mercaptoethanol (Sigma-Aldrich), 1% B27 supplement (Invitrogen), 1% N2 supplement (Invitrogen), 10 ng/mL Noggin, 10 ng/mL IGF-1, 5 ng/mL FGF2, 50 ng/mL recombinant Wnt3a (R&D Systems)] containing 2 μM BIO (6-bromoindirubin-3′-oxime) or 50 ng/mL Norrin as the Wnt signaling pathway activator instead of 50 ng/mL recombinant Wnt3a. On day 17 after induction of differentiation, immature retinal ganglion cells thus generated were cultured and differentiated into mature retinal ganglion cells for 5 days in a differentiation medium [DMEM/F12 (Invitrogen), 1 mM L-glutamine (Invitrogen), 0.1 mM nonessential amino acids (Invitrogen), 0.1 mM mercaptoethanol (Sigma-Aldrich), 1% B27 supplement (Invitrogen), 1% N2 supplement (Invitrogen), 10 ng/mL IGF-1, 250 ng/mL recombinant Shh (R&D Systems)] containing 1 μM purmorphamine as the Shh receptor activator instead of 250 ng/mL Shh. On day 22 after induction of differentiation, the mature retinal ganglion cells were matured for 39 days using a medium prepared by adding 500 nM retinoic acid (RA) to the above differentiation medium.
The immunofluorescence assay of the cells generated by this method was performed using retinal ganglion cell markers, Islet-1 and NF200, and the results were consistent with the results of using Wnt3a and Shh (FIG. 21).

AMPA receptor = assay: Recording of spontaneous excitatory postsynaptic currents (sEPSCs) in stem cell-derived retinal ganglion cells; format: cell-based, human; conditions: H9-derived RGCs, CNQX 50 μM
[3] = tested on: human pluripotent stem cell-derived retinal ganglion cell line; assay: Live cell Ca2+ imaging of retinal ganglion cell line; format: cell-based; conditions: 1 mM glutamate stimulation; Fluo-4; passaged cell line
Protocol: For calcium imaging, cells cultured on 18 mm coverslip were washed with Tyrode's solution (119 mM NaCl, 2.5 mM KCl, 2 mM CaCl2), 2 mM MgCl2, 25 mM HEPES, 30 mM glucose, pH 7.4) twice or three times, and then cultured at 37° C. with addition of 1 μM Fluo-4-AM (Life technologies, Carlsbad, Calif., USA). After culturing for 15 min, cells were washed with Tyrode's solution for 10 min. Time differential images were obtained by using an Olympus IX-71 inverted microscope (Olympus, Tokyo, Japan) equipped with 40×(1.0 NA) oil lens and EMCCD (iXon887, Andor Technologies, Belfast, Northern Ireland) every 0.5 sec for 30 min. From the 10th image frame, cells were stimulated with 1 mM glutamate. After stimulation, cells were infused with Tyrode's solution.

[4] = tested on: voltage-gated sodium channel; format: cell-based, human
retinal ganglion cells = assay: Effects of Wnt3a, Shh and RA in Protocol A differentiation, immunofluorescence assay with retinal ganglion cell-specific markers; format: cell-based, human; set-up: production of retinal ganglion cells: dose or concentration left out as unconfirmed; conditions: day 39
Protocol: After being blocked for 90 min, the slides in each differentiation step were incubated overnight at 4° C. with antibodies specific to cells of each differentiation step as given in Table 1. Before use, these antibodies were diluted in a PBS solution containing 1% BSA and 0.25% Triton X-100. The cells cultured on the slides in each step were washed three times for 5 min with PBS and incubated at room temperature for 2 hr with species-specific secondary antibody conjugated with Cy3 (1:800, Jackson Immunoresearch Laboratory) or Alexa488 (1:500, Invitrogen) (Table 1). A standard material suitable for the primary and the secondary antibodies was used to examine non-specific staining or interaction between the antibodies. Thereafter, the cells were washed three times for 5 min with PBS, counterstained with DAPI (4′,6-diamidino-2 phenylindole) and mounted in Vectashield (Vector Laboratories), followed by visualization under an epifluorescence microscope (Nikon Eclipse, E800, Tokyo, Japan) and a confocal microscope (Zeiss LSM510, Carl Zeiss, Inc, Thornwood, N.Y., USA). 500 cells were counted from 20 microscopic fields randomly selected at 400 magnification and evaluated for positive responses to each antibody. Positive responses to antibodies were determined after at least three evaluations.
To examine effects of each of Wnt3a, Shh and RA used in the Protocol A differentiation method during production of retinal ganglion cells, respective factors were treated according to a differentiation schedule of Protocol A, and on day 39 after induction of differentiation, an immunofluorescence assay was performed using retinal ganglion cell-specific markers (FIG. 22).

Molecule: Nc1ccncc1 [4-Aminopyridine, 4-aminopyridine]
- fast-activating fraction of outward potassium current ([1]; H9-derived RGCs, day 59): blocked
- fast-activating fraction of outward potassium current ([1]; iPSC-derived RGCs, day 39): blocked

Molecule: O=C1Nc2cc(Br)ccc2/C1=C1/Nc2ccccc2/C1=N\O [BIO, 6-bromoindirubin-3′-oxime]
- immunofluorescence staining of Islet-1 and NF200 compared with Wnt3a and Shh [2]: consistent with the immunofluorescence staining results of Wnt3a and Shh

Molecule: N#Cc1cc2c(cc1[N+](=O)[O-])=NC(=O)C(=O)N=2 [CNQX, 6-cyano-7-nitroquinoxaline-2,3-dione]
- appearance of sEPSCs (AMPA receptor; Protocol A, day 59): blocked
- appearance of sEPSCs (AMPA receptor; Protocol B, day 96): blocked

Molecule: N[C@@H](CCC(=O)O)C(=O)O [glutamate]
- cytoplasmic calcium level [3]: considerably increased; also recorded: considerable increase

Molecule: c1ccc2c(Oc3nc(Nc4ccc(N5CCOCC5)cc4)c4ncn(C5CCCCC5)c4n3)cccc2c1 [purmorphamine]
- immunofluorescence staining of Islet-1 and NF200 compared with Wnt3a and Shh [2]: consistent with the immunofluorescence staining results of Wnt3a and Shh

Molecule: NC1=N[C@H](O)[C@H]2[C@H]3O[C@]4(O)O[C@@H]([C@@H](O)[C@@]2(N1)[C@@H]4O)[C@]3(O)CO [tetrodotoxin]
- fast-activating and inactivating inward sodium currents [4]: completely blocked

B1: Dkkl: Wnt3a antagonist; recombinant Dickkopf-1, Wnt signaling pathway inhibitor (protein, UniProt O94907 32-266, looked up)
Dickkopf-related protein 1: TLNSVLNSNAIKNLPPPLGGAAGHPGSAVSAAPGILYPGGNKYQTIDNYQPYPCAEDEECGTDEYCASPTRGGDAGVQICLACRKRRKRCMRHAMCCPGNYCKNGICVSSDQNHFRGEIEETITESFGNDHSTLDGYSRRTTLSSKMYHTKGQEGSVCLRSSDCASGLCCARHFWSKICKPVLKEGQVCTKHRRKGSHGLEIFQRCYCGEGLSCRIQKDHHQASNSSRLHTCQRH
- production of retinal ganglion cells (retinal ganglion cells; instead of Wnt3a days 14 to 17, Shh and RA per schedule): hardly produced

B2: Norrin: Wnt signaling pathway activator; binds to Frizzled4 receptor (protein, UniProt Q00604 25-133, looked up)
Norrin: KTDSSFIMDSDPRRCMRHHYVDSISHPLYKCSSKMVLLARCEGHCSQASRSEPLVSFSTVLKQPFRSSCHCCRPQTSKLKALRLRCSGGMRLTATYRYILSCHCEECNS
- immunofluorescence staining of Islet-1 and NF200 compared with Wnt3a and Shh [2]: consistent with the immunofluorescence staining results of Wnt3a and Shh

B3: Wnt3a: recombinant Wnt3a, Wnt signaling pathway activator (protein, UniProt P56704 19-352, looked up)
Protein Wnt-3a: SYPIWWSLAVGPQYSSLGSQPILCASIPGLVPKQLRFCRNYVEIMPSVAEGIKIGIQECQHQFRGRRWNCTTVHDSLAIFGPVLDKATRESAFVHAIASAGVAFAVTRSCAEGTAAICGCSSRHQGSPGKGWKWGGCSEDIEFGGMVSREFADARENRPDARSAMNRHNNEAGRQAIASHMHLKCKCHGLSGSCEVKTCWWSQPDFRAIGDFLKDKYDSASEMVVEKHRESRGWVETLRPRYTYFKVPTERDLVYYEASPNFCEPNPETGSFGTRDRTCNVSSHGIDGCDLLCCGRGHNARAERRREKCRCVFHWCCYVSCQECTRVYDVHTCK
- caliber growth and fasciculation of axons (NF200 staining) (retinal ganglion cells; Protocol A schedule): delayed
- synaptogenesis and dendritic spine development (TUJ1 staining) (retinal ganglion cells; Protocol A schedule): no synaptogenesis and dendritic spine development
- retinal ganglion cells produced (retinal ganglion cells; factors treated per Protocol A schedule): ≥ 80%

Reference: patent publication US11168302B2, “Method for differentiation into retinal ganglion cells from stem cells” (ClavisTherapeutics, INC., priority 2014, dated 2021)
